32 molecules from the METLIN SMRT retention time set (Domingo-Almenara et al. 2019) can be followed below.

The data set in a line: gradient 5% acetonitrile 3 min, to 50% in 2 min, to 85% in 15 min, held 3 min, 100 µL/min. Conditions: column: Zorbax Extend-C18 2.1 x 50 mm; eluents: water / acetonitrile, 0.1% formic acid. The method, boiled down:
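Using water and acetonitrile that each contained 0.1% formic acid, mixtures of ~100 pure standards were separated at 100 μL/min on a Zorbax Extend-C18 column (2.1 × 50 mm, 1.8 μm). The HPLC fed a quadrupole time-of-flight mass spectrometer working in positive and negative ionization mode, with dead and dwell volumes of 40 μL and 900 μL. Data were acquired over 3 months. Retention time was read from computationally picked adduct peaks after manual inspection of each.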
Molecule `CC1CCC(NC(=O)c2nnn(Cc3cccc(F)c3)c2-n2cccc2)CC1` (configuration not stated) yielded an RP-LC retention time of 1160 s. Molecule `CCc1ccc(NC(=O)c2cc(C(C)C)n3nccc3n2)cc1` returned an RP-LC retention time of 1260 s. The value for `COc1cccc(NC(=O)C2CC(=O)N(c3ccc4c(c3)CCN4C(=O)C3CCC3)C2)c1` (configuration not stated) was 817 s. For `Cc1ccn2c(NC(=O)c3cccc(C(F)(F)F)c3)c(-c3ccc(F)cc3)nc2c1`, the RP-LC retention time was 752 s. As for `CCOC(=O)Cn1c(=O)c2cnc(-c3ccc(C)cc3)nc2n(C)c1=O`, the RP-LC retention time is 1060 s. `O=C(C1=CCN(Cc2ccccc2)CC1)N1CCN(c2cccc(Cl)c2)CC1` returned an RP-LC retention time of 707 s.

The molecule `COc1ccccc1CNC(=O)C1CC(=O)N(c2n[nH]c3cccc(F)c23)C1` (configuration not stated) had an RP-LC retention time of 711 s. The value for `Nc1nc2ccc(Cl)cc2c2nc(-c3ccco3)nn12` was 755 s; that for `O=C(Nc1sc2c(c1C(c1cccnc1)N1CCN(c3ccccn3)CC1)CCCC2)c1ccco1` (configuration not stated) was 676 s.

With `COc1ccc(N2CC(c3nc(-c4cccc(OC)c4OC)no3)CC2=O)cc1` (configuration not stated), the RP-LC retention time stood at 870 s. With `O=C(c1ccco1)N1CCCn2nc(-c3cccs3)cc2C1` the figure was 750 s. `O=C(NCc1ccc(-c2noc(-c3ccc(F)cc3F)n2)s1)C1CC1` came in with an RP-LC retention time of 893 s. With `COc1ccc(S(=O)(=O)CCc2noc(C(=O)NCCc3ccc(SC)cc3)n2)cc1` the figure was 930 s. With `Cc1ccc(-n2cc3c(N4CCCC(C(=O)NCc5ccc(C)c(C)c5)C4)ncnc3n2)cc1` (configuration not stated) the figure was 772 s. With `O=C(Nc1nccs1)C1CCCN(c2ncnc3c2nc2n3CCCCC2)C1` (configuration not stated) the figure was 730 s; with `CCCN1C(=O)COc2ccc(-c3noc(-c4ccc(NC(C)=O)cc4)n3)cc21`, 948 s; with `COc1cccc(OC)c1C(=O)Nc1nc(-c2ccc3c(c2)NC(=O)C(C)O3)c(C)s1` (configuration not stated), 866 s. `CCn1cc(S(=O)(=O)N2CCOc3ccc(NC(=O)C4CC4)cc3C2)cn1` returned an RP-LC retention time of 734 s.

Take `COc1ccc(NC(=O)N2CCc3cn(C)c4cccc(c34)C2)cc1`: the RP-LC retention time was determined as 844 s. Molecule `CCOc1ccc(-n2c(=O)c3sccc3n(Cc3nc(-c4cccc(C)c4)no3)c2=O)cc1` displayed an RP-LC retention time of 1100 s. The molecule `O=C(NC1CCCC1)C1CC(=O)N(c2ccc3c(c2)CCN3C(=O)C2CC2)C1` (configuration not stated) showed an RP-LC retention time of 704 s. The value for `CNC(=O)c1ccc(-n2c(C)ccc2C)nc1` was 697 s; that for `O=C(C1CCN(S(=O)(=O)c2ccc(-c3noc(-c4cccc(F)c4)n3)cc2)CC1)N1CCCC1` was 1020 s. The value for `CCc1nc2onc(C)c2c(=O)n1CC(=O)NCC(C)c1ccccc1` (configuration not stated) was 832 s. `Cc1ccc(NC(=O)Cn2nc(N3CCSCC3)c3ccccc3c2=O)c(C)c1` had an RP-LC retention time of 940 s. With `CCN1CCn2cc(S(=O)(=O)NCc3cccc(C(F)(F)F)c3)cc2C1=O` the figure was 781 s. Regarding `CS(=O)(=O)N1CCOc2ccc(CCC(=O)NCC3CCCO3)cc2C1` (configuration not stated), the RP-LC retention time came out at 666 s. Take `NS(=O)(=O)c1ccc(CCNCc2ccc(-c3cc(Cl)cc(Cl)c3)o2)cc1`: the RP-LC retention time came out at 800 s. `COc1ccc(-c2nnc(COc3ccc(NC(=O)c4ccoc4)cc3)o2)cc1` returned an RP-LC retention time of 738 s. For the molecule `CCC(Sc1ccc(NC(=O)c2cccc(F)c2)nn1)C(=O)OC` (configuration not stated), the RP-LC retention time amounted to 890 s. The molecule `CN1CCn2cc(S(=O)(=O)Nc3ccc(F)cc3Cl)cc2C1=O` yielded an RP-LC retention time of 690 s. With `Cc1cc(S(=O)(=O)[C@H]2CS(=O)(=O)C[C@@H]2N2CCN(c3cccc(Cl)c3)CC2)ccc1F` the figure was 1090 s.
